We go through three molecules from ChEMBL document CHEMBL1687752, “Impact of antifungal prophylaxis on colonization and azole susceptibility of Candida species” (2009).

SMILES strings stand for the structures. Values after ≈ are worked out from the molar mass of the structure shown. Where only a bound is given, the exact number is not on record here.

Holding throughout (assay type): functional
Assay [1] deals with Nakaseomyces glabratus. The assay is described as follows: Antifungal activity against 16 days cultured Candida glabrata isolated from invasive fungal infected subject blood after 17 days of prophylaxis by broth microdilution method.
The subject of assay [2] is Nakaseomyces glabratus. The assay is described as follows: Antifungal activity against 23 days cultured Candida glabrata isolated from neutropenic subject with AML or MDS stool receiving antifungal therapy for 25 days after 3 days of prophylaxis by broth microdilution method.
Assay [3] deals with Candida tropicalis. In words: Antifungal activity against -3 days cultured Candida tropicalis isolated from neutropenic subject with AML or MDS pharynx receiving antifungal therapy for 45 days after 24 days of prophylaxis by broth microdilution method.
For assay [4], the system named is Nakaseomyces glabratus. The assay is described as follows: Antifungal activity against 43 days cultured Candida glabrata isolated from HSCT recipient with acute or chronic GVHD mouth receiving antifungal therapy for 168 days after 113 days of prophylaxis by broth microdilution method.
Assay [5] concerns Nakaseomyces glabratus. In words: Antifungal activity against 176 days cultured Candida glabrata isolated from HSCT recipient with acute or chronic GVHD mouth receiving antifungal therapy for 168 days after 113 days of prophylaxis by broth microdilution method.
Assay [6] concerns Pichia kudriavzevii. The assay is described as follows: Antifungal activity against 19 days cultured Candida krusei isolated from invasive fungal infected subject blood receiving antifungal therapy for 19 days after 6 days of prophylaxis by broth microdilution method.
Assay [7] has as its system Nakaseomyces glabratus. The assay is described as follows: Ratio of URA3 gene expression in Candida glabrata isolated from patient 975 receiving antifungal drug to URA3 gene expression in Candida glabrata isolated from patient 975 by RT-PCR analysis.
In assay [8] the test system is Nakaseomyces glabratus. The assay is described as follows: Antifungal activity against Candida glabrata isolated from HSCT recipients with acute or chronic GVHD receiving posaconazole assessed as maximum MIC by broth microdilution method.
Assay [9] relates to Candida albicans. The assay is described as follows: Antifungal activity against Candida albicans isolated from HSCT recipients with acute or chronic GVHD receiving fluconazole assessed as maximum MIC by broth microdilution method.
The subject of assay [10] is Nakaseomyces glabratus. In words: Antifungal activity against Candida glabrata isolated from HSCT recipients with acute or chronic GVHD receiving fluconazole assessed as maximum MIC by broth microdilution method.
For assay [11], the system named is Candida albicans. The assay is described as follows: Antifungal activity against Candida albicans isolated from HSCT recipient 301 with acute or chronic GVHD mouth receiving antifungal drug after 114 days prophylaxis by broth microdilution method.
Assay [12] relates to Candida albicans. The assay is described as follows: Antifungal activity against Candida albicans isolated from HSCT recipient 031 with acute or chronic GVHD mouth after 109 days prophylaxis by broth microdilution method.
The subject of assay [13] is Candida albicans. In words: Antifungal activity against Candida albicans isolated from HSCT recipient 462 with acute or chronic GVHD mouth after 112 days prophylaxis by broth microdilution method.
Assay [14] deals with Candida albicans. In words: Antifungal activity against Candida albicans isolated from HSCT recipient 928 with acute or chronic GVHD mouth receiving antifungal drug after 112 days prophylaxis by broth microdilution method.
For assay [15], the system named is Nakaseomyces glabratus. The assay is described as follows: Antifungal activity against Candida glabrata isolated from HSCT recipient 497 with acute or chronic GVHD mouth after 114 days prophylaxis by broth microdilution method.
The subject of assay [16] is Nakaseomyces glabratus. In words: Antifungal activity against Candida glabrata isolated from HSCT recipient 491 with acute or chronic GVHD mouth after 112 days prophylaxis by broth microdilution method.
Assay [17] deals with Nakaseomyces glabratus. In words: Ratio of CDR1 gene expression in Candida glabrata isolated from patient 186 receiving antifungal drug to CDR1 gene expression in Candida glabrata isolated from patient 186 by RT-PCR analysis.
Assay [18] has as its system Nakaseomyces glabratus. In words: Ratio of CDR2 gene expression in Candida glabrata isolated from patient 186 receiving antifungal drug to CDR2 gene expression in Candida glabrata isolated from patient 186 by RT-PCR analysis.
Assay [19] deals with Nakaseomyces glabratus. The assay is described as follows: Ratio of ERG11 gene expression in Candida glabrata isolated from patient 186 receiving antifungal drug to ERG11 gene expression in Candida glabrata isolated from patient 186 by RT-PCR analysis.
For assay [20], the system named is Nakaseomyces glabratus. In words: Ratio of URA3 gene expression in Candida glabrata isolated from patient 186 receiving antifungal drug to URA3 gene expression in Candida glabrata isolated from patient 186 by RT-PCR analysis.
For assay [21], the system named is Nakaseomyces glabratus. The assay is described as follows: Ratio of CDR1 gene expression in Candida glabrata isolated from patient 975 receiving antifungal drug to CDR1 gene expression in Candida glabrata isolated from patient 975 by RT-PCR analysis.
The subject of assay [22] is Nakaseomyces glabratus. In words: Ratio of CDR2 gene expression in Candida glabrata isolated from patient 975 receiving antifungal drug to CDR2 gene expression in Candida glabrata isolated from patient 975 by RT-PCR analysis.
Assay [23] concerns Nakaseomyces glabratus. In words: Ratio of ERG11 gene expression in Candida glabrata isolated from patient 975 receiving antifungal drug to ERG11 gene expression in Candida glabrata isolated from patient 975 by RT-PCR analysis.
In assay [24] the test system is Nakaseomyces glabratus. In words: Ratio of CDR1 gene expression in Candida glabrata isolated from patient 491 receiving antifungal drug to CDR1 gene expression in Candida glabrata isolated from patient 491 by RT-PCR analysis.
In assay [25] the test system is Nakaseomyces glabratus. In words: Ratio of ERG11 gene expression in Candida glabrata isolated from patient 491 receiving antifungal drug to ERG11 gene expression in Candida glabrata isolated from patient 491 by RT-PCR analysis.
The test system of assay [26] is Nakaseomyces glabratus. The assay is described as follows: Ratio of URA3 gene expression in Candida glabrata isolated from patient 491 receiving antifungal drug to URA3 gene expression in Candida glabrata isolated from patient 491 by RT-PCR analysis.
In assay [27] the test system is Nakaseomyces glabratus. In words: Ratio of CDR1 gene expression in Candida glabrata isolated from patient 002 receiving antifungal drug to CDR1 gene expression in Candida glabrata isolated from patient 002 by RT-PCR analysis.
For assay [28], the system named is Nakaseomyces glabratus. The assay is described as follows: Ratio of CDR2 gene expression in Candida glabrata isolated from patient 002 receiving antifungal drug to CDR2 gene expression in Candida glabrata isolated from patient 002 by RT-PCR analysis.
In assay [29] the test system is Nakaseomyces glabratus. The assay is described as follows: Ratio of ERG11 gene expression in Candida glabrata isolated from patient 002 receiving antifungal drug to ERG11 gene expression in Candida glabrata isolated from patient 002 by RT-PCR analysis.
Assay [30] relates to Nakaseomyces glabratus. In words: Ratio of URA3 gene expression in Candida glabrata isolated from patient 002 receiving antifungal drug to URA3 gene expression in Candida glabrata isolated from patient 002 by RT-PCR analysis.
Assay [31] relates to Nakaseomyces glabratus. The assay is described as follows: Ratio of CDR1 gene expression in Candida glabrata isolated from patient 497 receiving antifungal drug to CDR1 gene expression in Candida glabrata isolated from patient 497 by RT-PCR analysis.
Assay [32] relates to Nakaseomyces glabratus. The assay is described as follows: Ratio of CDR2 gene expression in Candida glabrata isolated from patient 497 receiving antifungal drug to CDR2 gene expression in Candida glabrata isolated from patient 497 by RT-PCR analysis.
The test system of assay [33] is Nakaseomyces glabratus. The assay is described as follows: Ratio of ERG11 gene expression in Candida glabrata isolated from patient 497 receiving antifungal drug to ERG11 gene expression in Candida glabrata isolated from patient 497 by RT-PCR analysis.
For assay [34], the system named is Nakaseomyces glabratus. In words: Ratio of URA3 gene expression in Candida glabrata isolated from patient 497 receiving antifungal drug to URA3 gene expression in Candida glabrata isolated from patient 497 by RT-PCR analysis.
Assay [35] deals with Nakaseomyces glabratus. The assay is described as follows: Ratio of CDR1 gene expression in Candida glabrata isolated from patient 807 receiving antifungal drug to CDR1 gene expression in Candida glabrata isolated from patient 807 by RT-PCR analysis.
Assay [36] has as its system Nakaseomyces glabratus. In words: Ratio of ERG11 gene expression in Candida glabrata isolated from patient 807 receiving antifungal drug to ERG11 gene expression in Candida glabrata isolated from patient 807 by RT-PCR analysis.
Assay [37] concerns Nakaseomyces glabratus. The assay is described as follows: Ratio of URA3 gene expression in Candida glabrata isolated from patient 807 receiving antifungal drug to URA3 gene expression in Candida glabrata isolated from patient 807 by RT-PCR analysis.

Take `CC[C@@H]([C@H](C)O)n1ncn(-c2ccc(N3CCN(c4ccc(OC[C@@H]5CO[C@@](Cn6cncn6)(c6ccc(F)cc6F)C5)cc4)CC3)cc2)c1=O` [POSACONAZOLE]: the MIC in assay [1] is above 8 µg/mL; in [2], 0.125 µg/mL (≈ 0.178 µM); in assay [3] it was below 0.015 µg/mL; in assay [4], 2 µg/mL (≈ 2.85 µM); in assay [5], 4 µg/mL (≈ 5.71 µM); in assay [6] it was 0.06 µg/mL (≈ 0.0856 µM). The MIC in [8] was 8 µg/mL; in [9], 16 µg/mL; in [10] it was 16 µg/mL; in [11] it was 0.03 µg/mL (≈ 0.0428 µM); in assay [12] it was below 0.015 µg/mL; in [13], below 0.015 µg/mL. The minimal inhibitory concentration (MIC) in [14] is above 8 µg/mL; in [15] it was 0.5 µg/mL (≈ 0.713 µM); in assay [16] it was 0.25 µg/mL (≈ 0.357 µM). The “fold change (FC)” value was 1.2 in assay [7]; -1.5 in assay [17]; -1.45 in assay [18]; -1.4 in assay [19]; -1.4 in assay [20]; 2.25 in [21]. The figures for the “fold change (FC)” value in assay [22] and in assay [23] were 1.5 and 1.6, respectively.

As for `CCC(C)n1ncn(-c2ccc(N3CCN(c4ccc(OCC5COC(Cn6cncn6)(c6ccc(Cl)cc6Cl)O5)cc4)CC3)cc2)c1=O` (centres undefined) [ITRACONAZOLE], the MIC in assay [1] was above 8 µg/mL; in assay [2], 0.125 µg/mL (≈ 0.177 µM); in assay [3] it was 0.03 µg/mL (≈ 0.0425 µM); in assay [4], 2 µg/mL (≈ 2.83 µM); in assay [5], 2 µg/mL (≈ 2.83 µM); in assay [6] it was 0.25 µg/mL (≈ 0.354 µM). Also, the minimal inhibitory concentration (MIC) in [8] came to 8 µg/mL; in [9] it was 16 µg/mL; in assay [10], 32 µg/mL; in assay [11] it was 0.25 µg/mL (≈ 0.354 µM); in [12], 0.03 µg/mL (≈ 0.0425 µM); in assay [13], 0.06 µg/mL (≈ 0.085 µM). Also, the MIC in assay [14] is above 8 µg/mL; in assay [15], 1 µg/mL (≈ 1.42 µM).

For `OC(Cn1cncn1)(Cn1cncn1)c1ccc(F)cc1F` [FLUCONAZOLE], the “fold change (FC)” value in assay [24] was 4.5; in [25] it was 1.2; in assay [26], 1; in assay [27] it was 1.5; in assay [28], -1.2; in [29], -1.2. For the same molecule, the “fold change (FC)” value is -1.2 in assay [30]; 1.3 in assay [31]; -1.2 in assay [32]; -1.2 in [33]; -1.2 in assay [34]; 4.3 in [35]. Further, the “fold change (FC)” value in [36] is 1.1; in assay [37] it was 1.4. Besides, the MIC in [2] was 4 µg/mL (≈ 13.1 µM); in assay [3], 0.5 µg/mL (≈ 1.63 µM); in [4], 64 µg/mL (≈ 209 µM); in assay [5], above 64 µg/mL; in [6] it was 32 µg/mL (≈ 104 µM); in assay [8], 64 µg/mL. Also, the MIC was determined as 64 µg/mL in [9]; 64 µg/mL in [10]; 0.25 µg/mL (≈ 0.816 µM) in assay [11]; 16 µg/mL (≈ 52.2 µM) in assay [12]; 8 µg/mL (≈ 26.1 µM) in assay [13]; 128 µg/mL (≈ 418 µM) in assay [14]. The molecule also gave an MIC in [15] of 16 µg/mL (≈ 52.2 µM).
